The record followed here is ChEMBL document CHEMBL5696439 (Cancer Res, 2010).

For orientation: inhibition means the change of the read-out against control, counted positive when it falls.

The structures appear in SMILES notation. Calls of active or inactive are those of the source. No cut-off for these calls is given here.

In test [1] the test system is Proto-oncogene tyrosine-protein kinase receptor Ret (Homo sapiens), P07949 [V804L]. Description: Inhibition of recombinant human GST-tagged RET V804L mutant (658-1114 residues) expressed in baculovirus expression system at 2 uM using Tyr 02 as substrate measured after 1 hr by Z'-LYTE assay relative to control.
The target in test [2] is Proto-oncogene tyrosine-protein kinase ROS (Homo sapiens) (UniProt P08922). In words: Inhibition of recombinant human GST-tagged ROS1 (1883-2347 residues) expressed in insect cells at 2 uM using Tyr 01 as substrate measured after 1 hr by Z'-LYTE assay relative to control. To be noted: Insect cell.
Sequence of Proto-oncogene tyrosine-protein kinase ROS (Homo sapiens) (P08922 whole entry, the tested form may be a part): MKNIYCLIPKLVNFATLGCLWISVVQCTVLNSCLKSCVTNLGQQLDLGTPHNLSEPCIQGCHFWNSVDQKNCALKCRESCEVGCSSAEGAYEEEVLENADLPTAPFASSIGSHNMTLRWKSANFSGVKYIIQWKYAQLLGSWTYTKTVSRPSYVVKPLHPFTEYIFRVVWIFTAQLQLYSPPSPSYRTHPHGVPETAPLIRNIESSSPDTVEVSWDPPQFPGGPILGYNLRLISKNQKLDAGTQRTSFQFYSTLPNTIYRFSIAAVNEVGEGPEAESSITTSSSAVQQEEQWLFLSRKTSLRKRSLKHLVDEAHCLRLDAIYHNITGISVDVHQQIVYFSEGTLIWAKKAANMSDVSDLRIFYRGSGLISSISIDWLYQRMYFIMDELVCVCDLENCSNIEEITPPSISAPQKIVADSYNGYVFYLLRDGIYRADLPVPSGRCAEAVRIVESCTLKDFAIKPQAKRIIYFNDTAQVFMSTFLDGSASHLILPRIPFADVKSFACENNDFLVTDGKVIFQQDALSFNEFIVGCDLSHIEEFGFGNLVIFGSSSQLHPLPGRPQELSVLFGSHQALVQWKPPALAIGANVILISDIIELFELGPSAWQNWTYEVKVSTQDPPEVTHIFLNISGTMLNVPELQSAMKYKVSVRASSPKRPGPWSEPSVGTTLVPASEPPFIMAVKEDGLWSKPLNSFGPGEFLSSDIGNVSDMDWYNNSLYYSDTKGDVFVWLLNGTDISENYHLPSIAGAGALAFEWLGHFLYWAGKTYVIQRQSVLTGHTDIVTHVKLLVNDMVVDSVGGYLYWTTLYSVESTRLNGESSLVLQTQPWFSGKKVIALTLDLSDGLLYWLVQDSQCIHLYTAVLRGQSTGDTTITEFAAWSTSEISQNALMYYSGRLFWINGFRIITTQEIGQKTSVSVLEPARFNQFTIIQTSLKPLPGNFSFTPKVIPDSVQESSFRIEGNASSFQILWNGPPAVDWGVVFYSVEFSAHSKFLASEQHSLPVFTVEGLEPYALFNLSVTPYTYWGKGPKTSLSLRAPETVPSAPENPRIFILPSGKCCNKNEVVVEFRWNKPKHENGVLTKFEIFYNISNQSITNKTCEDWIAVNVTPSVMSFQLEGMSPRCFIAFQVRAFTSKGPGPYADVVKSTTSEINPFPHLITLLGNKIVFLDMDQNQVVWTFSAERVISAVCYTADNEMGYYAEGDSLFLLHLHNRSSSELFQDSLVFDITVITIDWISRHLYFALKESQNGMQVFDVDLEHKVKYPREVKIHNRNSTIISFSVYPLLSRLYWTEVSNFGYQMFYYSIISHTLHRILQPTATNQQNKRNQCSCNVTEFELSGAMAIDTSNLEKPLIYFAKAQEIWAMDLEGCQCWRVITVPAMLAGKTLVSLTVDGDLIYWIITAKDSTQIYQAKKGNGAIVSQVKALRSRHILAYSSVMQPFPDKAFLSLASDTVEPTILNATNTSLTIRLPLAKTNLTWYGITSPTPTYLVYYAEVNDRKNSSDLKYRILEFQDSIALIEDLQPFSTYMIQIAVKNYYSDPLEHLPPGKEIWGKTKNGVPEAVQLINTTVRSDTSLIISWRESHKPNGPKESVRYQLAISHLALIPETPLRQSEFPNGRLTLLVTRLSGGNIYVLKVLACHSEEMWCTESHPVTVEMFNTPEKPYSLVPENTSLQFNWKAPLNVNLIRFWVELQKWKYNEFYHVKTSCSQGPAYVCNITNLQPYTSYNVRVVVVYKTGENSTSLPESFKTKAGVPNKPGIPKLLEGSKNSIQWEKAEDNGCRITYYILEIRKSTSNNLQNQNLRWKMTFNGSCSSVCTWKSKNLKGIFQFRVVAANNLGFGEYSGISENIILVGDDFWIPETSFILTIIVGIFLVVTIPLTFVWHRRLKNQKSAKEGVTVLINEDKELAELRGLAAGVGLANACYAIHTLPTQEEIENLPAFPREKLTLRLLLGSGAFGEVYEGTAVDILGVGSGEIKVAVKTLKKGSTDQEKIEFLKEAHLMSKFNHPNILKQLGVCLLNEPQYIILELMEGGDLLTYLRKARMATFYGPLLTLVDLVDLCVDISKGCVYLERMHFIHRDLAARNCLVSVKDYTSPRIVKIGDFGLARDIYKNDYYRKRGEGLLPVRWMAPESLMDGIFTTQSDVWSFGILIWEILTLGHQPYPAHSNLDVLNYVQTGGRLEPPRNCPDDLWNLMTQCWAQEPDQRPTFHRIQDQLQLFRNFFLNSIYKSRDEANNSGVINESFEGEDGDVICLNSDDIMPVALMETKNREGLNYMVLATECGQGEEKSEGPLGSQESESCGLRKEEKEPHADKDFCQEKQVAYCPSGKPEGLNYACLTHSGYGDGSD
Test [3] addresses Ephrin type-B receptor 1 (Homo sapiens) (UniProt P54762). In words: Inhibition of recombinant human GST-tagged EPHB1 (613-881 residues) expressed in insect cells at 2 uM using Tyr 02 as substrate measured after 1 hr by Z'-LYTE assay relative to control. Particulars: Insect cell.
In test [4] the target is RAC-alpha serine/threonine-protein kinase (Homo sapiens) (UniProt P31749). Description: Inhibition of recombinant human full-length His-tagged AKT1 expressed in insect cells at 2 uM using Ser/Thr 06 as substrate measured after 1 hr by Z'-LYTE assay relative to control. To be noted: Insect cell.
For test [5], the target named is Proto-oncogene tyrosine-protein kinase Src (Homo sapiens) (UniProt P12931). Description: Inhibition of recombinant human full length SRC N1 expressed in baculovirus expression system at 2 uM using Tyr 02 as substrate measured after 1 hr by Z'-LYTE assay relative to control.
Test [6] concerns the target Tyrosine-protein kinase HCK (Homo sapiens) (UniProt P08631). In words: Inhibition of recombinant human full-length GST-tagged HCK expressed in insect cells at 2 uM using Tyr 02 as substrate measured after 1 hr by Z'-LYTE assay relative to control. To be noted: Insect cell.
A further test has as its system LNCaP. In words: Antiproliferative activity against human LNCaP cells assessed as cell growth inhibition at 10 micromol/L incubated for 3 days by MTS assay relative to control. Format: functional. Particulars: 72 h, dose 10 µmol/L, time 3 day. A general note: Tetrazolium assays rely on reduction of a dye to a coloured formazan, in cell work by metabolically active cells.

The target of test [7] is Serine/threonine-protein kinase Nek1 (Homo sapiens) (UniProt Q96PY6). In words: Inhibition of recombinant human GST-tagged NEK1 (1-505 residues) expressed in insect cells at 2 uM using Ser/Thr 07 as substrate measured after 1 hr by Z'-LYTE assay relative to control. Particulars: Insect cell.
In the next test the test system is U-87 MG. Description: Antitumor activity against human U-87MG cells assessed as lactate production incubated for 24 hrs. To be noted: U-87MG ATCC, dose 0.01-10 µmol/L. Type of test: functional, cell-based.
In test [8] the target is Mitogen-activated protein kinase kinase kinase 9 (Homo sapiens) (UniProt P80192). In words: Inhibition of recombinant human GST-tagged MAP3K9 (1-500 residues) expressed in insect cells at 2 uM using Ser/Thr 07 as substrate measured after 1 hr by Z'-LYTE assay relative to control. Particulars: Insect cell.
In test [9] the target is Activin receptor type-1B (Homo sapiens) (UniProt P36896). In words: Inhibition of recombinant human GST-tagged ACVR1B (150 to 505 residues) expressed in insect cells at 2 uM using Ser/Thr 16 as substrate measured after 1 hr by Z'-LYTE assay relative to control. Particulars: Insect cell.
Sequence of Activin receptor type-1B (Homo sapiens) (P36896 whole entry, the tested form may be a part, canonical isoform): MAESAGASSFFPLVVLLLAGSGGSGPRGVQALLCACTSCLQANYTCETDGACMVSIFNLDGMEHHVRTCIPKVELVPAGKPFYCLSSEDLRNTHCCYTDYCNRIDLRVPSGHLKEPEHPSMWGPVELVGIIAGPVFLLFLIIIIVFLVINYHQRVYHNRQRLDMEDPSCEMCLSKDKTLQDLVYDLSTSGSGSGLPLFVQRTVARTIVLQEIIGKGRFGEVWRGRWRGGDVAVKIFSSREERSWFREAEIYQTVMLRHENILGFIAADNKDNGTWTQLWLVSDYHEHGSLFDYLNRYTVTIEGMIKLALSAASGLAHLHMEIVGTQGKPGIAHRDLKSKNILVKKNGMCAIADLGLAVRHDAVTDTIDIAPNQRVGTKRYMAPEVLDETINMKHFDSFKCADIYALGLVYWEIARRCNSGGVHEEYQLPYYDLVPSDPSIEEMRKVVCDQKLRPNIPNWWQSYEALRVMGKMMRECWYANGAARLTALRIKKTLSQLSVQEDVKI
The target in test [10] is Phosphorylase b kinase gamma catalytic chain, liver/testis isoform (Homo sapiens) (UniProt P15735). Description: Inhibition of recombinant human full length GST-tagged PHKG2 expressed in insect cells at 2 uM using Ser/Thr 07 as substrate measured after 1 hr by Z'-LYTE assay relative to control. To be noted: Insect cell.
Sequence of Phosphorylase b kinase gamma catalytic chain, liver/testis isoform (Homo sapiens) (P15735 whole entry, canonical isoform): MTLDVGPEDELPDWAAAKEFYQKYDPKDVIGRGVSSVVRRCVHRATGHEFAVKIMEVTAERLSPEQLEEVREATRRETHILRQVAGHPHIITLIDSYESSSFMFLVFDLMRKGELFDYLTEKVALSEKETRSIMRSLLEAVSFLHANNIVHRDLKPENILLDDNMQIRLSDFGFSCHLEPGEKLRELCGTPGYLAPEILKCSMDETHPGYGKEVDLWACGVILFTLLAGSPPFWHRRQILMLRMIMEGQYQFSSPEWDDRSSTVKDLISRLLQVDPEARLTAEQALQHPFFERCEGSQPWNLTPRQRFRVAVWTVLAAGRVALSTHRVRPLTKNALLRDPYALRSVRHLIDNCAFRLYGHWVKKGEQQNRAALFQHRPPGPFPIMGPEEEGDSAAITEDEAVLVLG
A further test has as its system Rat1. Description: Inhibition of mTORC1 in rat Rat1 cells assessed as S6K phosphorylation at T389 level preincubated for 1 hrs in the presence of IGF-1 stimulation by immunoblot assay. Type of test: cell-based. Particulars: dose 0.01-2 µmol/L. In general terms: Immunoblotting shows a protein as a band on a membrane.

Sequence of Ephrin type-B receptor 1 (Homo sapiens) (P54762 whole entry, the tested form may be a part): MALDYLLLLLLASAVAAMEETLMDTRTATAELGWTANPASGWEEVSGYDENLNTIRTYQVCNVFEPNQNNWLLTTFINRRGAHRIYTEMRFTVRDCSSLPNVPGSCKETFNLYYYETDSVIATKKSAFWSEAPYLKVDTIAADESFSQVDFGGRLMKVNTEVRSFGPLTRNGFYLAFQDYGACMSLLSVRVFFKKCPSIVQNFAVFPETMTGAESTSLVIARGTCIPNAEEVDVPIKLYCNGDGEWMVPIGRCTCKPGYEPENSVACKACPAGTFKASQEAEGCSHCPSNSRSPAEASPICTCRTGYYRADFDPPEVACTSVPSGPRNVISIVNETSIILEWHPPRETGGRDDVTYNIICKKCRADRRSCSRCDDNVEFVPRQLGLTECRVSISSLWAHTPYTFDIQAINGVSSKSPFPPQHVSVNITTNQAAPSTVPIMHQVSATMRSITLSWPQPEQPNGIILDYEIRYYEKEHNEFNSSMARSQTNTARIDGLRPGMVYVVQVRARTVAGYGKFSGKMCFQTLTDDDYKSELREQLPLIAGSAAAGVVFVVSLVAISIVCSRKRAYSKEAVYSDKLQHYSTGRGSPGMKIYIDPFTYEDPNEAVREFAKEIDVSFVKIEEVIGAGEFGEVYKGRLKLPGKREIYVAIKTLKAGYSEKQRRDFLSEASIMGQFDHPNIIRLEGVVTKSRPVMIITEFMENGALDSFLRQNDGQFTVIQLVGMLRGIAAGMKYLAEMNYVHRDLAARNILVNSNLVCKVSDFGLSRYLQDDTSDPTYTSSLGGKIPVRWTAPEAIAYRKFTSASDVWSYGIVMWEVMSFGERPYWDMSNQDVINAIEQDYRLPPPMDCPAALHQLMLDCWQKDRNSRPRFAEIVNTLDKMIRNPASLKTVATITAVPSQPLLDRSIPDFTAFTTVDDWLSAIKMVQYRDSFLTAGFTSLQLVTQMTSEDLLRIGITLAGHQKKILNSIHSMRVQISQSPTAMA
Sequence of Tyrosine-protein kinase HCK (Homo sapiens) (P08631 2-526 limits assumed): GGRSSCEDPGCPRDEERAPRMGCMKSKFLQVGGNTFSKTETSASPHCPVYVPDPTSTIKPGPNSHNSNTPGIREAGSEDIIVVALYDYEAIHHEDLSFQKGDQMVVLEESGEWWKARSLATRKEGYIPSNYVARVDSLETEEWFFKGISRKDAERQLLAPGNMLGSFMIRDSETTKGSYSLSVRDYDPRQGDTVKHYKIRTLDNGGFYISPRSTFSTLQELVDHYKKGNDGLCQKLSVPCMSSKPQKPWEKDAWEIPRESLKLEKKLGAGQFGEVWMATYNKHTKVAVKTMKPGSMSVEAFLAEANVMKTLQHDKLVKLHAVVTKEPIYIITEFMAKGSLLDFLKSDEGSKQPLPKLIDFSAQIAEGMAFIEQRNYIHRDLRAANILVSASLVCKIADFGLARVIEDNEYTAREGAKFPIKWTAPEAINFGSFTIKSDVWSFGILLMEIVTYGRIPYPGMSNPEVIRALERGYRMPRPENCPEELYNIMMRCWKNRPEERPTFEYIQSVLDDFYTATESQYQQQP

`CNC(=O)Nc1ccc(-c2nc(N3CC4CCC(C3)O4)c3cnn(C4CCC5(CC4)OCCO5)c3n2)cc1`: the inhibition in test [1] was 2%; in test [2], 2%; in test [3] it was 2%; in test [4] it was -5%; in [5], 7%; in [6] it was 5%. Also, the inhibition in test [7] is 7%; in test [8], 11%; in [9], 3%; in test [10] it was 12%. For the same compound, the inhibition at 10 µM with LNCaP amounted to 100%. For the same compound, the Activity result in the test on U-87 MG was “Dose-Dependent Effect”. The inhibition entry in the test with Rat1 is “Active”.
